Results on eleven molecules are retold here after the NIST ThermoML archive (doi:10.1021/acs.jced.9b00375).

For data set [1] the following is noted: 298.15 K; 101.3 kPa; Liquid; Vibrating tube method.
The nature of data set [2]: wn = mass fraction of the nth substance listed. Conditions: 298.15 K, 101.3 kPa, Liquid, Vibrating tube method.

Numbers after ± are expanded uncertainties.

Usually mass density stands for mass per unit of volume. Turning to `CCCCCC` [hexane], the mass density in data set [1] was found to be 668 ± 16 kg/m3. Consider `CO` [methanol], for which the mass density in data set [1] is given as 786.7 ± 16 kg/m3. For the molecule `NCCO.O=CO` [2-hydroxyethylammonium formate] + CCCCCC, the mass density was 1182.7 ± 16 kg/m3 in data set [2] (w2 = 0.0028), 1194.1 ± 16 kg/m3 in data set [2] (w2 = 0.0063), 655.6 ± 16 kg/m3 in data set [2] (w2 = 0.997) and 663.6 ± 16 kg/m3 in data set [2] (w2 = 0.9982). `NCCO.O=CO` [2-hydroxyethylammonium formate] + CCCCCCCC: the results for the mass density in data set [2] (w2 = 0.0035), in data set [2] (w2 = 0.9955) and in data set [2] (w2 = 0.9971) were 1192.6 ± 16 kg/m3, 699.5 ± 16 kg/m3 and 699.7 ± 16 kg/m3, respectively. On to `NCCO.O=CO` [2-hydroxyethylammonium formate] + CCCCCCC, for which the mass density stood at 1183 ± 16 kg/m3 in data set [2] (w2 = 0.0045) and 680 ± 16 kg/m3 in data set [2] (w2 = 0.9989). With `CCCCCCC` [heptane], in data set [1], the mass density amounted to 679 ± 16 kg/m3. On to `CCCCC` [pentane], for which the mass density in data set [1] came out at 621.3 ± 16 kg/m3. Take `NCCO.O=CO` [2-hydroxyethylammonium formate] + CCCCC: in data set [2] (w2 = 0.9491), the mass density is recorded as 625.1 ± 16 kg/m3. For the molecule `CCO` [ethanol], in data set [1], the mass density is 785.7 ± 16 kg/m3.

As for `CCCCCCCC` [octane], the mass density in data set [1] is listed as 698.7 ± 16 kg/m3. On to `NCCO.O=CO` [2-hydroxyethylammonium formate], for which the mass density in data set [1] was found to be 1215 ± 16 kg/m3.
